Source: article PMC8306964 (2021)
Peptide text beside a SMILES is read from it. * marks the point of attachment. OBn = c1ccc(CO*)cc1

Key:
[1] = test system: p(dGdC) (DNA, polymer) GC; test: fluorescence titration, Scatchard (McGhee-von Hippel) fit; conditions: Na+ (sodium cacodylate, 50 mM); pH 7.0, 25 °C, <1% DMSO; n fixed 0.3; polynucleotide as phosphates; error half log unit; per base
pApU (RNA, polymer) A/U = test: as above; conditions: Na+ (sodium cacodylate, 50 mM); pH 7.0, 25 °C, <1% DMSO; n fixed 0.3; polynucleotide as phosphates; error half log unit; per base
[2] = test system: p(dAdT) (DNA, polymer) AT; test: as above; conditions: Na+ (sodium cacodylate, 50 mM); pH 7.0, 25 °C, <1% DMSO; n fixed 0.3; polynucleotide as phosphates; error half log unit; per base
[3] = test system: dA10-dT10 (DNA, duplex) AAAAAAAAAA/TTTTTTTTTT; test: photoalkylation (300 nm irradiation), HPLC; conditions: NH4+ (ammonium acetate, 100 mM); covalent; pH 7.0; 15 or 60 min; new broad signal at about 16.5 min
[4] = test system: dA10-dT10 (DNA, duplex) AAAAAAAAAA/TTTTTTTTTT; test: HPLC retention shift; conditions: NH4+ (ammonium acetate, 100 mM); pH 7.0; signal about 0.5 min earlier with compound
[5] = test system: dG12-dC12 (DNA, duplex) GGGGGGGGGGGG/CCCCCCCCCCCC; test: HPLC retention shift; conditions: NH4+ (ammonium acetate, 100 mM); pH 7.0; retention retarded by about 0.3 min with compound; no alkylation on irradiation

log Ka [1]	log Ka (pApU (RNA, polymer) A/U)	log Ka [2]	binding [3]	binding [4]	binding [5]	Compound
6.5 log (M^-1)						N[C@@H](Cc1c[nH]c2ccccc12)C(=O)N[C@@H](Cc1c[nH]c2ccccc12)C(=O)N[C@@H](Cc1ccc(O)cc1)C(=O)OCc1ccccc1 (H-Trp-Trp-Tyr-OBn)
6.4 log (M^-1)	6.0 log (M^-1)	5.9 log (M^-1)	yes	yes	yes	CN(C)Cc1cc(C[C@H](NC(=O)[C@H](Cc2c[nH]c3ccccc23)NC(=O)[C@@H](N)Cc2c[nH]c3ccccc23)C(=O)OCc2ccccc2)ccc1O
